From ChEMBL document CHEMBL5465560, “Selectivity Literature for EUbOPEN Chemogenomic Library” (2024)
Values belong to the compound of their own block, whether it stands above or below them.

Assays:
[1] = biological target: Calcium/calmodulin-dependent protein kinase type II subunit gamma (Homo sapiens) (UniProt Q13555); assay: Selectivity interaction (LanthaScreen Eu Kinase Binding Assay) EUB0001632a CAMK2G; details: at 10 µM
[2] = biological target: B1 bradykinin receptor (Homo sapiens) (UniProt P46663); assay: Selectivity interaction (Eurofins CEREP Diversity Profile (receptors and ion channels)) EUB0000279b BDKRB1; details: at 10 µM
[3] = biological target: Activin receptor type-1-like (Homo sapiens) (UniProt P37023); assay: Selectivity interaction (KinomeScan (DiscoverX)) EUB0000666a ACVRL1; details: at 10 µM
[4] = biological target: Mitogen-activated protein kinase 9 (Homo sapiens, UniProt P45984); assay: Selectivity interaction (Kinase panel (literature)) EUB0001199aCl MAPK9; details: at 1 µM
[5] = biological target: Serine/threonine-protein kinase PLK1 (Homo sapiens, UniProt P53350); assay: Selectivity interaction (ActivX KiNativ screen (kinase selectivity in THP-1 cell lysates)) EUB0000639a PLK1; format: subcellular; details: lysate, at 5 µM
[6] = biological target: Tyrosine-protein kinase Fyn (Homo sapiens) (UniProt P06241); assay: Selectivity interaction (ActivX KiNativ screen (kinase selectivity in THP-1 cell lysates)) EUB0000639a FYN; format: subcellular; details: lysate, at 5 µM
[7] = biological target: Mast/stem cell growth factor receptor Kit (Homo sapiens, UniProt P10721); assay: Selectivity interaction (Kinase panel (Invitrogen)) EUB0000639a KIT; details: at 200 nM
[8] = biological target: DNA (cytosine-5)-methyltransferase 3B (Homo sapiens) (UniProt Q9UBC3); assay: Selectivity interaction (Methyltransferase screen (radiometric assays, panel of 8 PRMTs, 21 protein lysine methyltransferases, 3 DNA methyltransferases, and one RNA methyltransferase)) EUB0000271b DNMT3B
[9] = biological target: T1, Bone morphogenetic protein receptor type-2 (Homo sapiens) (UniProt Q13873); assay: Selectivity interaction (KinomeScan (DiscoverX)) EUB0001049a BMPR2; details: at 1 µM
T1 sequence (whole entry): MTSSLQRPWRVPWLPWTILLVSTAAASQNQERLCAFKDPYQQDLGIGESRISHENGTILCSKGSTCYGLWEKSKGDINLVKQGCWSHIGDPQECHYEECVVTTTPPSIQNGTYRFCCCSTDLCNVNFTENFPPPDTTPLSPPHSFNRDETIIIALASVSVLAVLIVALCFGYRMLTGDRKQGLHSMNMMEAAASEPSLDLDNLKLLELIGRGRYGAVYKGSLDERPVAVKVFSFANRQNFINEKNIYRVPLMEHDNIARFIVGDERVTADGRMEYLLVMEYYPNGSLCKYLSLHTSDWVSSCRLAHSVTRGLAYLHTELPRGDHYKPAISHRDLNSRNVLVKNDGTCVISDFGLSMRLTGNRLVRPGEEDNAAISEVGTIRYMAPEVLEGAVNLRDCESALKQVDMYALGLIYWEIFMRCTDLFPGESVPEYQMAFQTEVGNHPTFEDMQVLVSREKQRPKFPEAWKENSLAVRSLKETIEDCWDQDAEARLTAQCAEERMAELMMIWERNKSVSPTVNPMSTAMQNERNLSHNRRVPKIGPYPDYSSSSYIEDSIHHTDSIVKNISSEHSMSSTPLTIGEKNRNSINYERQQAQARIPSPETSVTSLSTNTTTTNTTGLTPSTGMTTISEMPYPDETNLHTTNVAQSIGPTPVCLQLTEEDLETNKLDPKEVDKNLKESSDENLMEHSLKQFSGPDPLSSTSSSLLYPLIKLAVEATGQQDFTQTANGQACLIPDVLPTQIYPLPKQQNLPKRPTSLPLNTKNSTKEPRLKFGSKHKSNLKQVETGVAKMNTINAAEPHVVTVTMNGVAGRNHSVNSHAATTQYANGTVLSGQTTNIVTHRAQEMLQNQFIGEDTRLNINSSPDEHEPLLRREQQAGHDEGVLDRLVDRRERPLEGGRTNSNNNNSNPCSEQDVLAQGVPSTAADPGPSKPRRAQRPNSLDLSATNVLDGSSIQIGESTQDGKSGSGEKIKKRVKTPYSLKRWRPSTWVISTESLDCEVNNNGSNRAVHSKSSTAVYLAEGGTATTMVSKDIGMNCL

[10] = biological target: Tyrosine-protein kinase CSK (Homo sapiens) (UniProt P41240); assay: Selectivity interaction (KinomeScan (DiscoverX)) EUB0001049a CSK; details: at 1 µM
[11] = biological target: Serine/threonine-protein kinase B-raf (Homo sapiens) (UniProt P15056); details: at 10 µM
[12] = biological target: T2, Eukaryotic elongation factor 2 kinase (Homo sapiens) (UniProt O00418); assay: Selectivity interaction (Kinase panel (KiNativ target engagement assay in Jurkat cells)) EUB0001635a EEF2K; format: cell-based; details: Selectivity number of off-targets 0.0, Selectivity number of targets 233.0, Source Knowledge https://www.sciencedirect.com/science/article/pii/S2451945619300674?via%3Dihub, at 1 µM
T2 sequence (whole entry): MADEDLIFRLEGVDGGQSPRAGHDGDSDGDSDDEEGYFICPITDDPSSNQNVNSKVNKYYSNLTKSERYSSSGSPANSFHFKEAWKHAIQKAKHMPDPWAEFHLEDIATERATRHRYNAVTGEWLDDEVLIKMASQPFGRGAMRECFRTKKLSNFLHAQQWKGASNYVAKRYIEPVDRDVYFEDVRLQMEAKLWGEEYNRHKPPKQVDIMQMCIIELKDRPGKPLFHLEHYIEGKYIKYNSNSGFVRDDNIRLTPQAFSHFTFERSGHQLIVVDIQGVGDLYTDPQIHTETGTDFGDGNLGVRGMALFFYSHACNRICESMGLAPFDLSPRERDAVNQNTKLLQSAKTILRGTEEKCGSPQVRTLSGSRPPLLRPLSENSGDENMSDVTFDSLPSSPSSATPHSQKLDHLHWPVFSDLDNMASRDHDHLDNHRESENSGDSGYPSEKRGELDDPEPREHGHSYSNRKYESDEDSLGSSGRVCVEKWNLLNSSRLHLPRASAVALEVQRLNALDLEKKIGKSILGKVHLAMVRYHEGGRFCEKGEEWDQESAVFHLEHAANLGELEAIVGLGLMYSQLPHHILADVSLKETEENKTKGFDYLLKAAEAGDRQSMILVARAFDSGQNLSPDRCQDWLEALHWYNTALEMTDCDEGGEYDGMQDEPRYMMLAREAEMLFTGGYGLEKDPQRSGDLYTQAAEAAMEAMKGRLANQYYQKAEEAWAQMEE

[13] = biological target: Microtubule-associated serine/threonine-protein kinase 1 (Homo sapiens) (UniProt Q9Y2H9); details: at 10 µM

Chain of Mast/stem cell growth factor receptor Kit (P10721 whole entry): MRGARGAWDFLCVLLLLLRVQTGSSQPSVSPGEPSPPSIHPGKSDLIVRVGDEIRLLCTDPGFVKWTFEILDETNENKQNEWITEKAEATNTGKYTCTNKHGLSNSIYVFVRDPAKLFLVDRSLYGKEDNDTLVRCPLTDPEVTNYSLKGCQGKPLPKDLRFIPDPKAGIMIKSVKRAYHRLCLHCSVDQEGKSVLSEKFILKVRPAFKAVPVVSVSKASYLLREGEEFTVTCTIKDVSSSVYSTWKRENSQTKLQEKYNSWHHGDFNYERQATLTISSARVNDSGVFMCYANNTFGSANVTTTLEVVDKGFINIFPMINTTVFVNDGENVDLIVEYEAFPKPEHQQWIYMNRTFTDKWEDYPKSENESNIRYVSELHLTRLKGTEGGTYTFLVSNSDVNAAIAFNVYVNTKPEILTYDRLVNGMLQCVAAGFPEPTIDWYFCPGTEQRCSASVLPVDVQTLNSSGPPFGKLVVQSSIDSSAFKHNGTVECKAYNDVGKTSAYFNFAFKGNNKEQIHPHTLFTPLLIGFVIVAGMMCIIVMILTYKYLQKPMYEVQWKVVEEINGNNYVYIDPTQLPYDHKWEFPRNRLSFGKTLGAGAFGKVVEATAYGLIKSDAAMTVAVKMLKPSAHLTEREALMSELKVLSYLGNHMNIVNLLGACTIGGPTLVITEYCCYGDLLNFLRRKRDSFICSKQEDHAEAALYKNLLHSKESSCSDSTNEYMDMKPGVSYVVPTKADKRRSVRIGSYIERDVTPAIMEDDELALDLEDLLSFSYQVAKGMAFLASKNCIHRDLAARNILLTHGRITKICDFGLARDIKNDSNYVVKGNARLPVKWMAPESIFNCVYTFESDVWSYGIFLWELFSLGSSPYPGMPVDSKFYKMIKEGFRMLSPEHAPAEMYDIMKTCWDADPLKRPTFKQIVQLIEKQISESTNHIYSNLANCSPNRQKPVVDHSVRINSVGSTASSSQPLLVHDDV
Chain of Tyrosine-protein kinase CSK (Homo sapiens) (P41240 2-450 limits assumed): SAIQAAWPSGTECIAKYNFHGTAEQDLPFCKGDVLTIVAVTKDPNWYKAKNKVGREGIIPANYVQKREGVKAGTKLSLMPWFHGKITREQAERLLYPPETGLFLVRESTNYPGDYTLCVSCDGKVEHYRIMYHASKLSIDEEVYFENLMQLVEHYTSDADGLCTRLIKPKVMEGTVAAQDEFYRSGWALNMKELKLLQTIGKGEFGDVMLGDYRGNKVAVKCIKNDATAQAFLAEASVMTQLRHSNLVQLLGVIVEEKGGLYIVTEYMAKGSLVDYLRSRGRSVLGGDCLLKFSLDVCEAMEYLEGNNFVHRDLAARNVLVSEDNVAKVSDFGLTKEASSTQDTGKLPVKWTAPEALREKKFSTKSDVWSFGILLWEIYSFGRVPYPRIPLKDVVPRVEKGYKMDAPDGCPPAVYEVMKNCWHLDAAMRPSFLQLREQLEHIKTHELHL
Chain of Tyrosine-protein kinase Fyn (Homo sapiens) (P06241 2-537 limits assumed): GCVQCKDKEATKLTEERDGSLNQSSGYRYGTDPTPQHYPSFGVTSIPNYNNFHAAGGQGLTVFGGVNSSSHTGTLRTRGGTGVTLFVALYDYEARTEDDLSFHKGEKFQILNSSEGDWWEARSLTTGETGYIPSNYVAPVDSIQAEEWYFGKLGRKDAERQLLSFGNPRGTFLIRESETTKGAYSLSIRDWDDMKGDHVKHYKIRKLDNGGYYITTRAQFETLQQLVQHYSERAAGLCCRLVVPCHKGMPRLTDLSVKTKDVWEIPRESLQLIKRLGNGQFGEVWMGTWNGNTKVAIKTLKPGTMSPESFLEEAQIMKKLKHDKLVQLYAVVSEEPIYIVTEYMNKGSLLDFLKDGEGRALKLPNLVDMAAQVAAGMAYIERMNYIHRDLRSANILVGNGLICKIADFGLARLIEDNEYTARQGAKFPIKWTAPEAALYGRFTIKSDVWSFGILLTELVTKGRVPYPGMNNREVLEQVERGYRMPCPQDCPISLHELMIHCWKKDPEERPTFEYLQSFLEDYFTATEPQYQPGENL
Chain of B1 bradykinin receptor (Homo sapiens) (P46663 whole entry): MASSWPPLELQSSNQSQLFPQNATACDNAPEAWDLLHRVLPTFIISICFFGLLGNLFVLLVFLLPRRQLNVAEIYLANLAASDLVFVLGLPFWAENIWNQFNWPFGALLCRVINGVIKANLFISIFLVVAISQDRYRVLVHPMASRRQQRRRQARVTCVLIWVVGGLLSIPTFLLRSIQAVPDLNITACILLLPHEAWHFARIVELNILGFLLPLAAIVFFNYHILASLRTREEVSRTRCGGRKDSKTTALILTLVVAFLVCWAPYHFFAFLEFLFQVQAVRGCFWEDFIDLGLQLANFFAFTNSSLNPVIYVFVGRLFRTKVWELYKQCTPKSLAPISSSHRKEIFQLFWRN
Chain of Activin receptor type-1-like (Homo sapiens) (P37023 whole entry): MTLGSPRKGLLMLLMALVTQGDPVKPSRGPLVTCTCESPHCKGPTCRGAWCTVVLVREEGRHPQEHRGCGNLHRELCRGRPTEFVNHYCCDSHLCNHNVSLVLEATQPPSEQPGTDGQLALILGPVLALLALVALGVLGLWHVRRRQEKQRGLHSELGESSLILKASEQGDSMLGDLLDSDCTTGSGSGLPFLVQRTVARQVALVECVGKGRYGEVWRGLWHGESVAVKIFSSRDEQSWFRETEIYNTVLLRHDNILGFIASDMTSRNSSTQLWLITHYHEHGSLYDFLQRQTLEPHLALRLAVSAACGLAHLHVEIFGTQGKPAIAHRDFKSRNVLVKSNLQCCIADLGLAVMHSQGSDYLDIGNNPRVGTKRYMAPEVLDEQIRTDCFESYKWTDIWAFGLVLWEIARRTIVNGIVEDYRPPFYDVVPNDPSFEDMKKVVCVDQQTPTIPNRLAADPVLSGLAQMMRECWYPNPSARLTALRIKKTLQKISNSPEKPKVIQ
Chain of Calcium/calmodulin-dependent protein kinase type II subunit gamma (Homo sapiens) (Q13555 whole entry): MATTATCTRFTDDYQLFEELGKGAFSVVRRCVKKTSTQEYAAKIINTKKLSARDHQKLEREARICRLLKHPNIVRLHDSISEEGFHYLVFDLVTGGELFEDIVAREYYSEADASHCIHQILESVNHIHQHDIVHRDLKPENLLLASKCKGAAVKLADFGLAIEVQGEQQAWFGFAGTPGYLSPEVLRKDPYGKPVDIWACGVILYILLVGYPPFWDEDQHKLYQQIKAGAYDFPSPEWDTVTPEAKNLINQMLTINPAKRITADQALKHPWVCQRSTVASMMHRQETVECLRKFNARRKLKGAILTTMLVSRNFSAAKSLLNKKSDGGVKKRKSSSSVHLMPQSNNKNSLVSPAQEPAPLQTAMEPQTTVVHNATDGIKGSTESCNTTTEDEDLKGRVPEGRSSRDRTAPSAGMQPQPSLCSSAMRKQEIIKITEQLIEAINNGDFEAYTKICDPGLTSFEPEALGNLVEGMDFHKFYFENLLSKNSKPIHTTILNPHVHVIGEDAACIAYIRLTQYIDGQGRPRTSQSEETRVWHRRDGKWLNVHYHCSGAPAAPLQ
Chain of Serine/threonine-protein kinase B-raf (Homo sapiens) (P15056 whole entry): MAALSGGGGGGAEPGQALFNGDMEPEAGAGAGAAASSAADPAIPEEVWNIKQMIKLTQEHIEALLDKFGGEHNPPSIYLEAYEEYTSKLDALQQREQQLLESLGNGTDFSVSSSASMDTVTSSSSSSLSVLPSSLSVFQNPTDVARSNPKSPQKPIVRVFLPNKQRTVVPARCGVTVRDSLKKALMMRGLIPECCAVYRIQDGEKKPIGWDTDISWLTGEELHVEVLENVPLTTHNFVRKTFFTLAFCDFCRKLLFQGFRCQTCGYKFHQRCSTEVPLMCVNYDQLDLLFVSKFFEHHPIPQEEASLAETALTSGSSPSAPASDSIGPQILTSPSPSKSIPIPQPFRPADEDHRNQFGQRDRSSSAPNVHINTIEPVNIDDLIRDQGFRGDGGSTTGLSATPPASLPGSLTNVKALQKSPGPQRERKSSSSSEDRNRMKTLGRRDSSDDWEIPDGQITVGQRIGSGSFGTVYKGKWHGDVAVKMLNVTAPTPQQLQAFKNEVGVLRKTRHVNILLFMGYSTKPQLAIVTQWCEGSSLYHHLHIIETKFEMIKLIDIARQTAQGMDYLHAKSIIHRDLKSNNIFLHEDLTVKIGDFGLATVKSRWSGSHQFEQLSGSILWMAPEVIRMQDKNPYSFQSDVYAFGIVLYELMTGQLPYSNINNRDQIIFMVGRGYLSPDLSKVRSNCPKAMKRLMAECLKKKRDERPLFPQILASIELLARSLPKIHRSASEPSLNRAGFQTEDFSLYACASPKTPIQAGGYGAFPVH
Chain of Mitogen-activated protein kinase 9 (P45984 whole entry, looked up): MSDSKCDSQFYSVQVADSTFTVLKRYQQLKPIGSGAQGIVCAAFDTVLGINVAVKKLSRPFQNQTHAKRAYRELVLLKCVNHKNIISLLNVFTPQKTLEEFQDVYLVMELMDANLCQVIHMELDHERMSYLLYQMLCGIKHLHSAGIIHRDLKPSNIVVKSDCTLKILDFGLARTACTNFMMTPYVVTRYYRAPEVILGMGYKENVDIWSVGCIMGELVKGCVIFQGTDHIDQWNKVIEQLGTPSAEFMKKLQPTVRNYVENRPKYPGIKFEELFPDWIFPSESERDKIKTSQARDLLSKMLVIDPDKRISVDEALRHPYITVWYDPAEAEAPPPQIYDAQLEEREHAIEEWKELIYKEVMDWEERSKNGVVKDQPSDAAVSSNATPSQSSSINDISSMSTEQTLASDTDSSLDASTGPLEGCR

% of inhibition [1]: -8.35%
Structure (SMILES): Cn1cc(-n2cnc3c(NCc4nc5cc(Cl)c(Cl)cc5[nH]4)nc(N4CCOCC4)nc32)cn1

% of control [2]: 95%
Structure (SMILES): CC(=O)c1cc(-c2ccccc2OCC2CC2)c2ncccn12

Structure (SMILES): O=C(NOC[C@H](O)CO)c1ccc(F)c(F)c1Nc1ccc(I)cc1F
% of control [3]: 100%

% of inhibition [4]: 18%
Structure (SMILES): CN1Cc2nccc(-c3cn(C)nc3-c3ccc(F)cc3)c2C1=O

% of inhibition [5]: 12.2%
% of inhibition [6]: -13.3%
% of inhibition [7]: 1.04%
Structure (SMILES): CC[C@@H]1[C@H](F)C(=O)N[C@@H]1COc1nccc2cc(C(N)=O)c(OC)cc12 [ZIMLOVISERTIB]

Structure (SMILES): Cc1cc(C)cc([C@@H]2c3cc(C)ccc3NC(=O)CN2C(=O)c2ccc(Br)s2)c1
% of activity ([8]; at 1 µM): 103%
% of activity ([8]; at 10 µM): 98.3%

Structure (SMILES): COc1cc(Nc2nc(C)cc(-c3cnn4nc(OC)ccc34)n2)cc(C(F)(F)F)c1
% of control [9]: 100%
% of control [10]: 59%

Structure (SMILES): CN(C)CCOc1ccc(-c2nc(-c3ccncc3)c(-c3ccc4c(c3)CC/C4=N\O)[nH]2)cc1
% of control [11]: 0%

Structure (SMILES): C=CC(=O)Nc1ccc(C(=O)Nc2[nH]nc3c2CN(C(=O)N[C@H](CN(C)C)c2ccccc2)C3(C)C)cc1
% of engagement [12]: -14.2%

Structure (SMILES): Cc1cc([C@@H](C)Nc2ccccc2C(=O)O)c2nc(N3CCOCC3)cc(=O)n2c1 [AZD-6482]
% of control [13]: 100%
